US20220119354A1, “DIAMINO-SUBSTITUTED PYRIDINES AND PYRIMIDINES AS HERBICIDES” (FMC Corporation, priority 2019, published 2022)

Tests used:
Format in all cases: in vivo
rice (Oryza sativa) = test: Test B flooded paddy test, rice; details: Flood, 250 g ai/ha, applied to paddy water, 2-leaf stage, visual evaluation after 13 to 15 d
Method in brief: (§1)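 Application was made into paddy water of pots flooded 3 cm deep at treatment, with seedlings at the 2-leaf stage. That flood level was kept throughout, and plants stayed under glass 13 to 15 d before visual assessment on a 0–100 control scale.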

[1] = tested on: barnyardgrass (Echinochloa crus-galli); test: Test A postemergence, barnyardgrass; details: 0 to 100 scale
Method in brief: (§2)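 Pots of loam–sand mix; preemergence directed soil spray at sowing, postemergence spray at one- to two-leaf stage. Readout: visual injury vs untreated controls, ~10 d, 0–100 scale.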

[2] = tested on: pigweed (Amaranthus retroflexus); test: Test A postemergence, pigweed; details: 0 to 100 scale
Method in brief: as §2

kochia (Kochia scoparia) [3] = test: Test A preemergence, kochia; details: 0 to 100 scale; for Kochia plant response rating: 0 is no effect, 100 is complete control
Method in brief: as §2

[4] = tested on: barnyardgrass (Echinochloa crus-galli); test: Test A preemergence, barnyardgrass; details: 0 to 100 scale; for Barnyardgrass plant response rating: 0 is no effect, 100 is complete control
Method in brief: as §2

corn (Zea mays) = test: Test A postemergence, corn; details: 0 to 100 scale
Method in brief: as §2

[5] = tested on: ragweed (common ragweed, Ambrosia elatior); test: Test A preemergence, ragweed; details: 0 to 100 scale; for Ragweed plant response rating: 0 is no effect, 100 is complete control
Method in brief: as §2

[6] = tested on: ryegrass, Italian (Lolium multiflorum); test: Test A postemergence, Italian ryegrass; details: 0 to 100 scale
Method in brief: as §2

[7] = tested on: ducksalad (Heteranthera limosa); test: Test B flooded paddy test, ducksalad; details: Flood, 250 g ai/ha, applied to paddy water, 2-leaf stage, visual evaluation after 13 to 15 d
Method in brief: as §1

kochia (Kochia scoparia) [8] = test: Test A postemergence, kochia; details: 0 to 100 scale
Method in brief: as §2

[9] = tested on: foxtail, green (Setaria viridis); test: Test A postemergence, green foxtail; details: 0 to 100 scale
Excerpt: (§3) Seeds of plant species selected from barnyardgrass (Echinochloa crus-galli), kochia (Kochia scoparia), ragweed (common ragweed, Ambrosia elatior), ryegrass, Italian (Lolium multiflorum), foxtail, giant (Setaria faberii), foxtail, green (Setaria viridis), and pigweed (Amaranthus retroflexus) were planted into a blend of loam soil and sand and treated preemergence with a directed soil spray using test chemicals formulated in a non-phytotoxic solvent mixture which included a surfactant.
(§4) At the same time, plants selected from these weed species and also wheat (Triticum aestivum), corn (Zea mays), blackgrass (Alopecurus myosuroides), and galium (catchweed bedstraw, Galium aparine) were planted in pots containing the same blend of loam soil and sand and treated with postemergence applications of test chemicals formulated in the same manner. Plants ranged in height from 2 to 10 cm and were in the one- to two-leaf stage for the postemergence treatment. Treated plants and untreated controls were maintained in a greenhouse for approximately 10 d, after which time all treated plants were compared to untreated controls and visually evaluated for injury. Plant response ratings, summarized in Table A, are based on a 0 to 100 scale where 0 is no effect and 100 is complete control. A dash (-) response means no test result.

[10] = tested on: ryegrass, Italian (Lolium multiflorum); test: Test A preemergence, Italian ryegrass; details: 0 to 100 scale; for Ryegrass, Italian plant response rating: 0 is no effect, 100 is complete control
Method in brief: as §2

[11] = tested on: barnyardgrass (Echinochloa crus-galli); test: Test B flooded paddy test, barnyardgrass; details: Flood, 250 g ai/ha, applied to paddy water, 2-leaf stage, visual evaluation after 13 to 15 d
Method in brief: as §1

[12] = tested on: foxtail, green (Setaria viridis); test: Test A preemergence, green foxtail; details: 0 to 100 scale
Excerpt: as §3, §4

[13] = tested on: blackgrass (Alopecurus myosuroides); test: Test A postemergence, blackgrass; details: 0 to 100 scale
Method in brief: as §2

[14] = tested on: ragweed (common ragweed, Ambrosia elatior); test: Test A postemergence, ragweed; details: 0 to 100 scale
Method in brief: as §2

[15] = tested on: pigweed (Amaranthus retroflexus); test: Test A preemergence, pigweed; details: 0 to 100 scale; for Pigweed plant response rating: 0 is no effect, 100 is complete control
Method in brief: as §2

[16] = tested on: galium (catchweed bedstraw, Galium aparine); test: Test A postemergence, galium; details: 0 to 100 scale
Method in brief: as §2

[17] = tested on: sedge, umbrella (small-flower umbrella sedge, Cyperus difformis); test: Test B flooded paddy test, umbrella sedge; details: Flood, 250 g ai/ha, applied to paddy water, 2-leaf stage, visual evaluation after 13 to 15 d
Method in brief: as §1

[18] = tested on: wheat (Triticum aestivum); test: Test A postemergence, wheat; details: 0 to 100 scale
Method in brief: as §2

[19] = tested on: foxtail, giant (Setaria faberii); test: Test A preemergence, giant foxtail; details: 0 to 100 scale, 0 is no effect, 100 is complete control
Method in brief: as §2

[20] = tested on: foxtail, giant (Setaria faberii); test: Test A postemergence, giant foxtail; details: 0 to 100 scale, 0 no effect, 100 complete control
Method in brief: as §2

[21] = 31 g ai/ha, 0 no effect, 100 complete control
[22] = 125 g ai/ha, 0 no effect, 100 complete control

## CC(CCc1ccccc1)Nc1ncc(C(F)(F)F)c(N)n1 (stereo not drawn) [Compound 23]
Rice (Oryza sativa)
  Plant response rating, Rice (0 to 100 scale, 0 is no effect, 100 is complete control): 0
[1]; 125 g ai/ha
  Plant response rating, Barnyardgrass: 0
[1]; 500 g ai/ha
  Plant response rating, Barnyardgrass: 0
[2]; 125 g ai/ha
  Plant response rating, Pigweed: 0
[2]; 500 g ai/ha
  Plant response rating, Pigweed: 0
Kochia (Kochia scoparia) [3]; 125 g ai/ha
  Plant response rating, Kochia: 0
Kochia (Kochia scoparia) [3]; 500 g ai/ha
  Plant response rating, Kochia: 0
[4]; 125 g ai/ha
  Plant response rating, Barnyardgrass: 0
[4]; 500 g ai/ha
  Plant response rating, Barnyardgrass: 0
Corn (Zea mays); 125 g ai/ha
  Plant response rating, Corn: 0
Corn (Zea mays); 500 g ai/ha
  Plant response rating, Corn: 0
[5]; 125 g ai/ha
  Plant response rating, Ragweed: 0
[5]; 500 g ai/ha
  Plant response rating, Ragweed: 0
[6]; 125 g ai/ha
  Plant response rating, Ryegrass, Italian: 0
[6]; 500 g ai/ha
  Plant response rating, Ryegrass, Italian: 0
[7]
  Plant response rating, Ducksalad (0 to 100 scale, 0 is no effect, 100 is complete control): 0
Kochia (Kochia scoparia) [8]; 125 g ai/ha
  Plant response rating, Kochia: 0
Kochia (Kochia scoparia) [8]; 500 g ai/ha
  Plant response rating, Kochia: 0
[9]; 125 g ai/ha
  Plant response rating, Foxtail, Green: 0
[9]; 500 g ai/ha
  Plant response rating, Foxtail, Green: 0
[10]; 125 g ai/ha
  Plant response rating, Ryegrass, Italian: 0
[10]; 500 g ai/ha
  Plant response rating, Ryegrass, Italian: 0
[11]
  Plant response rating, Barnyardgrass (0 to 100 scale, 0 is no effect, 100 is complete control): 0
[12]; 125 g ai/ha
  Plant response rating, Foxtail, Green: 0
[12]; 500 g ai/ha
  Plant response rating, Foxtail, Green: 0
[13]; 125 g ai/ha
  Plant response rating, Blackgrass: 0
[13]; 500 g ai/ha
  Plant response rating, Blackgrass: 0
[14]; 125 g ai/ha
  Plant response rating, Ragweed: 0
[14]; 500 g ai/ha
  Plant response rating, Ragweed: 0
[15]; 125 g ai/ha
  Plant response rating, Pigweed: 0
[15]; 500 g ai/ha
  Plant response rating, Pigweed: 50
[16]; 125 g ai/ha
  Plant response rating, Galium: 0
[16]; 500 g ai/ha
  Plant response rating, Galium: 0
[17]
  Plant response rating, Sedge, Umbrella (0 to 100 scale, 0 is no effect, 100 is complete control): 0
[18]; 125 g ai/ha
  Plant response rating, Wheat: 0
[18]; 500 g ai/ha
  Plant response rating, Wheat: 0

## C[C@@H](Nc1ncc(C(F)(F)F)c(N)n1)c1cc2c(F)ccc(F)c2s1 [Compound 114]
Rice (Oryza sativa)
  Plant response rating, Rice (0 to 100 scale, 0 is no effect, 100 is complete control): 20
[1]; [21]
  Plant response rating, Barnyardgrass: 10
[1]; [22]
  Plant response rating, Barnyardgrass: 30
[19]; 31 g ai/ha
  Foxtail, Giant plant response rating: 10
[19]; 125 g ai/ha
  Foxtail, Giant plant response rating: 70
[2]; [21]
  Plant response rating, Pigweed: 100
[2]; [22]
  Plant response rating, Pigweed: 100
Kochia (Kochia scoparia) [3]; 31 g ai/ha
  Kochia plant response rating: 30
Kochia (Kochia scoparia) [3]; 125 g ai/ha
  Kochia plant response rating: 60
[4]; 31 g ai/ha
  Barnyardgrass plant response rating: 0
[4]; 125 g ai/ha
  Barnyardgrass plant response rating: 40
Corn (Zea mays); [21]
  Plant response rating, Corn: 10
Corn (Zea mays); [22]
  Plant response rating, Corn: 30
[20]; 31 g ai/ha
  Plant response rating, Foxtail, Giant: 10
[20]; 125 g ai/ha
  Plant response rating, Foxtail, Giant: 100
[5]; 31 g ai/ha
  Ragweed plant response rating: 40
[5]; 125 g ai/ha
  Ragweed plant response rating: 60
[6]; [21]
  Plant response rating, Ryegrass, Italian: 0
[6]; [22]
  Plant response rating, Ryegrass, Italian: 40
[7]
  Plant response rating, Ducksalad (0 to 100 scale, 0 is no effect, 100 is complete control): 65
Kochia (Kochia scoparia) [8]; [21]
  Plant response rating, Kochia: 50
Kochia (Kochia scoparia) [8]; [22]
  Plant response rating, Kochia: 80
[10]; 31 g ai/ha
  Ryegrass, Italian plant response rating: 30
[10]; 125 g ai/ha
  Ryegrass, Italian plant response rating: 50
[11]
  Plant response rating, Barnyardgrass (0 to 100 scale, 0 is no effect, 100 is complete control): 65
[13]; [21]
  Plant response rating, Blackgrass: 0
[13]; [22]
  Plant response rating, Blackgrass: 30
[14]; [21]
  Plant response rating, Ragweed: 40
[14]; [22]
  Plant response rating, Ragweed: 80
[15]; 31 g ai/ha
  Pigweed plant response rating: 50
[15]; 125 g ai/ha
  Pigweed plant response rating: 100
[16]; [21]
  Plant response rating, Galium: 60
[16]; [22]
  Plant response rating, Galium: 90
[17]
  Plant response rating, Sedge, Umbrella (0 to 100 scale, 0 is no effect, 100 is complete control): 80
[18]; [21]
  Plant response rating, Wheat: 0
[18]; [22]
  Plant response rating, Wheat: 30
